In PubChem BioAssay (NCI):
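Compound exposure: 48 hours, 5 concentrations, 96-well plates. TGI denotes the concentration required for complete inhibition of growth.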

Tests used:
Experiment in all cases: NCI tumour cell line growth inhibition, 48 h
HOP-62 NSCLC = tested on: HOP-62 NSCLC
HT29 colon = tested on: HT29 colon
SW-620 colon = tested on: SW-620 colon
SNB-75 CNS = tested on: SNB-75 CNS
A498 renal = tested on: A498 renal
MDA-N = tested on: MDA-N
SF-295 CNS = tested on: SF-295 CNS
OVCAR-8 ovarian = tested on: OVCAR-8 ovarian
HS 578T breast = tested on: HS 578T breast
MDA-MB-231 breast = tested on: MDA-MB-231 breast
EKVX NSCLC = tested on: EKVX NSCLC
MALME-3M melanoma = tested on: MALME-3M melanoma
NCI-H226 lung = tested on: NCI-H226 lung
OVCAR-3 ovarian = tested on: OVCAR-3 ovarian
K-562 leukemia = tested on: K-562 leukemia
CCRF-CEM leukemia = tested on: CCRF-CEM leukemia
HCC-2998 colon = tested on: HCC-2998 colon

| Compound | TGI (HOP-62 NSCLC) [µM] | TGI (HT29 colon) [µM] | TGI (SW-620 colon) [µM] | TGI (SNB-75 CNS) [µM] | TGI (A498 renal) [µM] | TGI (MDA-N) [µM] | TGI (SF-295 CNS) [µM] | TGI (OVCAR-8 ovarian) [µM] | TGI (HS 578T breast) [µM] | TGI (MDA-MB-231 breast) [µM] | TGI (EKVX NSCLC) [µM] | TGI (MALME-3M melanoma) [µM] | TGI (NCI-H226 lung) [µM] | TGI (OVCAR-3 ovarian) [µM] | TGI (K-562 leukemia) [µM] | TGI (CCRF-CEM leukemia) [µM] | TGI (HCC-2998 colon) [µM] |
| --- | --- | --- | --- | --- | --- | --- | --- | --- | --- | --- | --- | --- | --- | --- | --- | --- | --- |
| CC1(C)N=C(N)N=C(N)N1c1cccc(C(=O)Nc2ccc(S(=O)(=O)F)cc2)c1 | > 100 | > 100 | > 100 | > 100 | > 100 | > 100 | > 100 | > 100 | > 100 | > 100 | > 100 | > 100 | > 100 | > 100 | > 100 | > 100 | – |
| CCN(CCCl)c1cc(CN(C)C)cc(NC(=O)C23CCC(C(=O)Nc4cc(CN(C)C)cc(N(CC)CCCl)c4)(CC2)CC3)c1 | 2.76 | 1.95 | 1.65 | 8.33 | 20.2 | 2.38 | 11.9 | 3.16 | 2.53 | 26.6 | – | 3.21 | 4 | – | 4.73 | 1.17 | 2.73 |
| CC(NC(=O)c1ccc(NP(=O)(OCc2ccc([N+](=O)[O-])o2)N(C)CCCCCl)cc1)c1ccc(OCC2CCCCC2)c(C(N)=O)c1 (centres undefined) | 43.4 | 44.4 | 86.8 | 31.7 | 49.2 | 62.4 | 36.4 | > 100 | 42.9 | 35 | – | – | 45.1 | 33.9 | 83.2 | 16.5 | 24.2 |
| N#CC(C#N)N=Nc1ccc(-c2nc3ccccc3o2)cc1 | 38.5 | 27.8 | 28.1 | 66.5 | 31.2 | 45.2 | – | > 100 | > 100 | 61.7 | 29.9 | > 100 | – | 9.77 | 54.7 | – | 14.7 |
| Oc1cc(N2CCCC2)ccc1/C=N/N1C(=S)N(c2ccccc2)C(=Nc2ccccc2)C1=Nc1ccccc1 | > 100 | > 100 | > 100 | – | – | > 100 | > 100 | > 100 | > 100 | 90.3 | > 100 | > 100 | > 100 | > 100 | > 100 | – | > 100 |
| C[N+](C)(C)CC(=O)N/N=C(\C(=O)NC1=C(Cl)C(=O)c2ccccc2C1=O)C(C#N)c1nc(-c2ccc([N+](=O)[O-])cc2)cs1 (centres undefined) | 34.4 | 33.6 | 31.6 | 19.9 | 33.3 | 3.2 | 18.9 | 47.6 | 40.6 | 39.3 | 34.2 | 3.97 | 38.6 | 4.44 | 61.1 | 49.5 | 30.5 |
| c1ccc(C(=NCCC2CNc3ccccc32)c2ccccc2)cc1 (centres undefined) | > 100 | > 100 | > 100 | – | > 100 | > 100 | > 100 | > 100 | > 100 | > 100 | > 100 | > 100 | – | > 100 | > 100 | > 100 | > 100 |
| CN(C)c1ccc(C2CC(c3ccc4ccccc4c3O)=NN2c2ccc([N+](=O)[O-])cc2[N+](=O)[O-])cc1 (centres undefined) | > 100 | > 100 | > 100 | > 100 | > 100 | 30.5 | > 100 | > 100 | > 100 | > 100 | – | > 100 | > 100 | > 100 | – | 94.3 | > 100 |
| CC(=O)OCC1OC(O[C@@H]2C[C@H]3C(C)(C)[C@@H](OC(C)=O)CC[C@]3(C)[C@H]3CC[C@]45C[C@]4(CC[C@H]5[C@@H](C)C[C@@H](O)[C@H](O)C(C)(C)F)[C@@]32C)C(O)C(O)C1O (some centres undefined) | > 100 | 3.05 | 4.85 | – | 76.5 | 3.09 | > 100 | 6.1 | 5.85 | 48.2 | 3.21 | 3.48 | – | > 100 | – | 3.57 | > 100 |
| O=C1/C(=C/c2ccc(Oc3ccccc3)cc2)N=C(c2ccccc2)N1c1ccc(S(=O)(=O)Nc2nccs2)cc1 | 79.4 | 72.6 | > 100 | 58.1 | 82 | 15.8 | 85.5 | – | > 100 | > 100 | > 100 | 86.6 | > 100 | > 100 | > 100 | > 100 | 6.87 |
| O=S1(=O)OCCOS(=O)(=O)C1Cc1cccc2ccccc12 | 49.1 | 71.4 | > 100 | > 100 | 28.9 | 59.3 | > 100 | 34.7 | 84.9 | 46.6 | 80.3 | 31.2 | 36.3 | – | 38.2 | 40.5 | 43 |
| CSc1nc2c(c(N3CCOCC3)n1)C(O)n1c(nc3ccccc31)S2 (centres undefined) | > 100 | > 100 | > 100 | 81.9 | > 100 | > 100 | > 100 | > 100 | 92.7 | > 100 | > 100 | > 100 | – | > 100 | – | > 100 | > 100 |
| CCCCCCCCCCCCCCCCOP(=O)(O)OCC(NC(C)=O)C(=O)O (centres undefined) | 36.9 | > 100 | > 100 | 98.2 | > 100 | > 100 | 47.4 | > 100 | > 100 | 93.2 | > 100 | > 100 | > 100 | > 100 | > 100 | – | > 100 |
| CC1CN(c2cc3c(cc2F)c(=O)c(C(=O)O)cn3-c2ccc(F)cn2)CC(C)N1 (centres undefined) | > 100 | > 100 | > 100 | > 100 | > 100 | > 100 | > 100 | > 100 | > 100 | > 100 | > 100 | > 100 | > 100 | > 100 | > 100 | > 100 | – |
| N=CN=CC(=S)O[C@@H]1C(=O)N2CCC[C@@]23CCCC[C@@H]13 | > 12.5 | > 12.5 | – | > 12.5 | > 12.5 | > 12.5 | > 12.5 | > 12.5 | > 12.5 | > 12.5 | > 12.5 | > 12.5 | > 12.5 | – | > 12.5 | > 12.5 | > 12.5 |
| C[N+](C)(C)c1cc2c(nn1)Nc1ccccc1S2 | 69.8 | 42.5 | > 100 | – | 87.8 | 50.3 | 49.7 | 77.9 | > 100 | 67 | 29.9 | 70 | 35.9 | 54.8 | 68.9 | 41 | 71.5 |
| CC(=O)n1cc(OP(=O)(Oc2ccccc2)Oc2ccccc2)c2ccccc21 | – | > 100 | > 100 | – | > 100 | > 100 | 57.3 | > 100 | > 100 | 86.4 | – | > 100 | > 100 | 93.6 | 67.4 | 50.4 | – |
| CCS(=O)(=O)CCn1c(=O)c2c(ncn2C)n(C)c1=O | > 100 | > 100 | > 100 | > 100 | > 100 | > 100 | > 100 | > 100 | > 100 | > 100 | > 100 | > 100 | – | > 100 | > 100 | > 100 | > 100 |
| O=C(O)CCC(N=NNc1ccc(-c2nc3ccccc3[nH]2)cc1)C(=O)O (centres undefined) | > 100 | > 100 | > 100 | > 100 | > 100 | > 100 | 73.2 | > 100 | > 100 | > 100 | > 100 | – | > 100 | > 100 | > 100 | > 100 | – |
| CCN(CC)C(=S)SC(C(=O)Nc1nnc(-c2ccccc2)o1)c1ccccc1 (centres undefined) | > 100 | 41.8 | > 100 | > 100 | 40.7 | 36.5 | > 100 | > 100 | > 100 | > 100 | 49.5 | 62 | 74.7 | 41.8 | > 100 | – | – |
| Cn1c2ccccc2c(=O)c2cccc(C(=O)NCC(=O)O)c21 | > 100 | > 100 | > 100 | > 100 | – | > 100 | > 100 | > 100 | > 100 | > 100 | > 100 | > 100 | > 100 | > 100 | > 100 | – | > 100 |
| O=C1NC(N2CCCCC2)=N/C1=C\c1ccc(Cl)cc1 | > 100 | 35.7 | > 100 | – | – | > 100 | > 100 | 64.8 | > 100 | > 100 | > 100 | > 100 | 96.1 | > 100 | – | > 100 | 60.5 |
| O=c1c(-c2ccccc2F)coc2cc(F)ccc12 | > 100 | > 100 | > 100 | 96.4 | > 100 | > 100 | > 100 | > 100 | > 100 | > 100 | > 100 | – | > 100 | > 100 | – | > 100 | – |
| O=C1c2ccccc2C2C1C(c1ccccc1)C1(Cc3ccccc3C1=O)C2c1ccccc1 (centres undefined) | > 100 | > 100 | > 100 | > 100 | – | > 100 | > 100 | > 100 | > 100 | > 100 | > 100 | > 100 | > 100 | > 100 | > 100 | > 100 | > 100 |
| C#Cc1cc(Br)c(OC(=O)C(C)(C)C)c(-c2cc(C#C)cc(Br)c2OC(=O)C(C)(C)C)c1 | > 100 | > 100 | > 100 | – | > 100 | > 100 | > 100 | > 100 | > 100 | > 100 | > 100 | > 100 | – | > 100 | > 100 | 36.1 | 90.7 |
| CSC1=NNC(SC)=NN1 | 0.398 | 0.316 | 0.307 | – | > 1 | 0.319 | 0.34 | 0.812 | 0.38 | 0.458 | 0.327 | 0.289 | 0.389 | 0.359 | 0.308 | > 1 | > 1 |
| COc1ccc(NC(C)=O)c(C(O)CCNC(C)=O)c1 (centres undefined) | – | > 100 | > 100 | > 100 | > 100 | > 100 | > 100 | > 100 | > 100 | > 100 | > 100 | – | > 100 | > 100 | – | > 100 | – |
| O=C(N/N=C/c1ccc([N+](=O)[O-])cc1)Nc1ccc(Br)cc1 | > 100 | > 100 | > 100 | > 100 | – | > 100 | > 100 | > 100 | > 100 | > 100 | > 100 | > 100 | > 100 | > 100 | > 100 | 84.5 | 90.9 |
| Cc1ccc(OCC2OC(n3cnc4c(Cl)nc(Cl)nc43)CC2Oc2ccc(C)cc2)cc1 (centres undefined) | 7.37 | 2.91 | > 100 | 5.39 | 44.8 | 3.84 | 5.42 | 5.39 | 5.21 | 3.99 | 14.9 | 5.13 | 14.3 | 6 | – | > 100 | 30.8 |
